SMILES strings stand for the structures.

The test has as its target T1, PBP2ALGA (Staphylococcus aureus, UniProt F4NA57).
T1 sequence (F4NA57 23-665 limits assumed): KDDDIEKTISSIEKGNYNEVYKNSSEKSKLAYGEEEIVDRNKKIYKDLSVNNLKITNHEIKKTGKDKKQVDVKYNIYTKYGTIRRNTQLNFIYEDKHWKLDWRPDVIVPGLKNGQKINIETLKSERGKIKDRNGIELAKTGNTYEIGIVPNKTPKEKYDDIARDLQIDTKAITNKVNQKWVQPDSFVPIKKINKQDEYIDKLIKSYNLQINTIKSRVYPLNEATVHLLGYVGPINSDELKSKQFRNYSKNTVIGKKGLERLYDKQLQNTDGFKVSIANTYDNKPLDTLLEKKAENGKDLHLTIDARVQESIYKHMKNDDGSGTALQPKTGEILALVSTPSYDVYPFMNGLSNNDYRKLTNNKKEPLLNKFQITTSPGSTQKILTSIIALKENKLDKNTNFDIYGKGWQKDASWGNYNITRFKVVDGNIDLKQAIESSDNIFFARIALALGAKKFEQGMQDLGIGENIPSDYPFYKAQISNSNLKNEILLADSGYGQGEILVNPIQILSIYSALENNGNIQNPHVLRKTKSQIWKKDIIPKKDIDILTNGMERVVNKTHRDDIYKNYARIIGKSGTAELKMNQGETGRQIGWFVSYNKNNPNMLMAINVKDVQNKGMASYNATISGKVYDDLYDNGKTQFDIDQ
Put plainly: Bocillin FL competition, SDS-PAGE fluorescence. The class given is binding.

In turn, `CO[C@@]1(NC(=O)Cc2cccs2)C(=O)N2C(C(=O)O)=C(COC(N)=O)CS[C@@H]21` [cefoxitin] had a 50% inhibitory concentration (IC50) of 501 µM.
The figure for `Cc1onc(-c2ccccc2)c1C(=O)N[C@@H]1C(=O)N2[C@@H]1SC(C)(C)[C@@H]2C(=O)O` [oxacillin] is 212 µM.

The term IC50 denotes the concentration that inhibits the measured activity by half.

The values are drawn from publication PMC3481288 (The Journal of Biological Chemistry, 2012).
